Measured values from publication PMC9571049 (Molecules, 2022).
Read-outs that look alike come from different tables or passages of the source.

Tests used:
[1] = molecular target: H1N1 NA (A/PuertoRico/8/1934) (Influenza A virus, UniProt P03468); experiment: biochemical
[2] = tested on: N1, H5N1; conditions: cited from earlier work
[3] = tested on: A/Goose/Guangdong/SH7/2013 (H5N1); experiment: microbe, parasite or virus in culture; format: cell-based; conditions: read-out: EC50 towards influenza virus H5N1
[4] = tested on: A/Goose/Jiangsu/1306/2014 (H5N8); experiment: microbe, parasite or virus in culture; format: cell-based; conditions: read-out: EC50 towards influenza virus H5N8
[5] = tested on: A/PR/8/34 (H1N1); experiment: microbe, parasite or virus in culture; format: cell-based; conditions: read-out: EC50 towards influenza virus H1N1
[6] = tested on: A/Wisconsin/67/05 (H3N2); experiment: microbe, parasite or virus in culture; format: cell-based; conditions: read-out: EC50 towards influenza virus H3N2
[7] = in vitro; conditions: chicken
[8] = in vitro; conditions: dog
[9] = molecular target: H5N1 NA (A/Goose/Guangdong/SH7/2013) (Influenza A virus, UniProt V5P6N1); format: biochemical
[10] = tested on: Kunming mice; conditions: mouse, in vivo

CCC(CC)O[C@@H]1C=C(C(=O)O)C[C@H](NCc2ccc(OCc3cccc(S(N)(=O)=O)c3)cc2)[C@H]1NC(C)=O [Compound 16c, (3R,4R,5S)-4-acetamido-3-(pentan-3-yloxy)-5-((4-((3-sulfamoylbenzyl)oxy)benzyl)amino)cyclohex-1-ene-1-carboxylic acid]
IC50 [1]: 900 ± 130 nM
melting point: 193.2 to 198.1 °C (dec.)

CCC(CC)OC1C=C(C(=O)O)CC(NCc2ccc(-c3ccccc3)cc2)C1NC(C)=O (stereo not drawn) [JMC20I]
IC50 [2]: 1.9 nM

CCC(CC)O[C@@H]1C=C(C(=O)O)C[C@H](NCc2ccc(OCc3cccc(C(=O)O)c3)cc2)[C@H]1NC(C)=O [Compound 5c, 3-((4-((((1S,5R,6R)-6-acetamido-3-carboxy-5-(pentan-3-yloxy)cyclohex-3-en-1-yl)amino)methyl)phenoxy)methyl)benzoic acid]
IC50 [1]: 390 ± 40 nM

CCC(CC)O[C@@H]1C=C(C(=O)O)C[C@H](NCc2ccc(OCc3ccc(C(=O)O)cc3)cc2)[C@H]1NC(C)=O [Compound 6c, 4-((4-((((1S,5R,6R)-6-acetamido-3-carboxy-5-(pentan-3-yloxy)cyclohex-3-en-1-yl)amino)methyl)phenoxy)methyl)benzoic acid]
IC50 [1]: 600 ± 130 nM
melting point: 193.3 to 195.5 °C (dec.)

CCC(CC)O[C@@H]1C=C(C(=O)O)C[C@H](NCc2ccc(OCc3ccc(C(=O)O)cc3OC)cc2)[C@H]1NC(C)=O [Compound 9c, 4-((4-((((1S,5R,6R)-6-acetamido-3-carboxy-5-(pentan-3-yloxy)cyclohex-3-en-1-yl)amino)methyl)phenoxy)methyl)-3-methoxybenzoic acid]
IC50 [1]: 3210 ± 380 nM
melting point: 171.2 to 175.7 °C (dec.)

CCC(CC)O[C@@H]1C=C(C(=O)O)C[C@H](NCc2ccc(OCc3cccc(C(N)=O)c3)cc2)[C@H]1NC(C)=O [Compound 14c, (3R,4R,5S)-4-acetamido-5-((4-((3-carbamoylbenzyl)oxy)benzyl)amino)-3-(pentan-3-yloxy)cyclohex-1-ene-1-carboxylic acid]
IC50 [1]: 11 ± 1.3 nM
EC50 ([3]; Influenza A virus, H5N1, CEF): 1180 ± 170 nM
EC50 ([4]; Influenza A virus, H5N8, CEF): 2800 ± 460 nM
EC50 ([5]; Influenza A virus, MDCK): 210 ± 20 nM
EC50 ([6]; Influenza A virus, H3N2, MDCK): > 100000 nM
CC50 [7]: 291000 ± 17900 nM
CC50 [8]: > 250000 nM

CCC(CC)OC1C=C(C(=O)O)CC(NCc2ccc(-c3cccs3)cc2)C1NC(C)=O (stereo not drawn) [JMC32]
IC50 [2]: 2.1 nM

CCC(CC)O[C@@H]1C=C(C(=O)O)C[C@H](NCc2ccc(OCc3cccc(B(O)O)c3)cc2)[C@H]1NC(C)=O [Compound 2c, (3R,4R,5S)-4-acetamido-5-((4-((3-boronobenzyl)oxy)benzyl)amino)-3-(pentan-3-yloxy)cyclohex-1-ene-1-carboxylic acid]
IC50 [1]: 60 ± 7 nM
fold lower potency than OSC against H5N1 in the enzymatic assay [9]: 3.9 fold
EC50 ([3]; Influenza A virus, H5N1, CEF): 690 ± 91 nM
EC50 ([4]; Influenza A virus, H5N8, CEF): 1570 ± 210 nM
EC50 ([5]; Influenza A virus, MDCK): 30 ± 30 nM
EC50 ([6]; Influenza A virus, H3N2, MDCK): 11100 ± 1150 nM
behavior abnormalities (lethargy, clonic convulsions, anorexia, ruffled fur) [10]: no significant behavior abnormalities
body weight [10]: increased gradually
death [10]: no death occurred
acute toxicity ([10]; 1000 mg/kg): no acute toxicity
CC50 [7]: 143000 ± 9560 nM
CC50 [8]: > 250000 nM

CCC(CC)OC1C=C(C(=O)O)CC(NCc2ccc(Sc3ccccc3)cc2)C1NC(C)=O (stereo not drawn) [JMC21h]
IC50 [2]: 0.96 nM

CCC(CC)O[C@@H]1C=C(C(=O)O)C[C@H](NCc2ccc(OCc3ccc(S(N)(=O)=O)cc3)cc2)[C@H]1NC(C)=O [Compound 17c, (3R,4R,5S)-4-acetamido-3-(pentan-3-yloxy)-5-((4-((4-sulfamoylbenzyl)oxy)benzyl)amino)cyclohex-1-ene-1-carboxylic acid]
IC50 [1]: 27 ± 4.8 nM

CCC(CC)O[C@@H]1C=C(C(=O)O)C[C@H](N)[C@H]1NC(C)=O [OSC, oseltamivir carboxylate, reference compound]
EC50 [3]: 760 ± 66 nM
EC50 [4]: 2010 ± 61 nM
EC50 [6]: 360 ± 160 nM
CC50 [7]: 201000 ± 4050 nM
CC50 [8]: > 250000 nM

CCC(CC)O[C@@H]1C=C(C(=O)O)C[C@H](NCc2ccc(OCc3ccccc3B(O)O)cc2)[C@H]1NC(C)=O [Compound 1c, (3R,4R,5S)-4-acetamido-5-((4-((2-boronobenzyl)oxy)benzyl)amino)-3-(pentan-3-yloxy)cyclohex-1-ene-1-carboxylic acid]
IC50 [1]: 690 ± 130 nM
melting point: 146.3 to 150.5 °C (dec.)

CCC(CC)O[C@@H]1C=C(C(=O)O)C[C@H](NCc2ccc(OCc3ccc(C(N)=O)cc3)cc2)[C@H]1NC(C)=O [Compound 15c, (3R,4R,5S)-4-acetamido-5-((4-((4-carbamoylbenzyl)oxy)benzyl)amino)-3-(pentan-3-yloxy)cyclohex-1-ene-1-carboxylic acid]
IC50 [1]: 1730 ± 290 nM

CCC(CC)O[C@@H]1C=C(C(=O)O)C[C@H](NCc2ccc(OCc3ccc([N+](=O)[O-])cc3)cc2)[C@H]1NC(C)=O [Compound 13c, (3R,4R,5S)-4-acetamido-5-((4-((4-nitrobenzyl)oxy)benzyl)amino)-3-(pentan-3-yloxy)cyclohex-1-ene-1-carboxylic acid]
IC50 [1]: 500 ± 63 nM
melting point: 184.1 to 187.5 °C (dec.)

CCC(CC)O[C@@H]1C=C(C(=O)O)C[C@H](NCc2ccc(OCc3cc(C(=O)O)ccc3OC)cc2)[C@H]1NC(C)=O [Compound 7c, 3-((4-((((1S,5R,6R)-6-acetamido-3-carboxy-5-(pentan-3-yloxy)cyclohex-3-en-1-yl)amino)methyl)phenoxy)methyl)-4-methoxybenzoic acid]
IC50 [1]: 14000 ± 930 nM

CCC(CC)O[C@@H]1C=C(C(=O)O)C[C@H](NCc2ccc3sc4ccccc4c3c2)[C@H]1NC(C)=O [JMC23d]
IC50 [2]: 0.27 nM

CCC(CC)O[C@@H]1C=C(C(=O)O)C[C@H](NCc2ccc(OCc3ccc(S(=O)(=O)O)cc3)cc2)[C@H]1NC(C)=O [Compound 18c, (3R,4R,5S)-4-acetamido-3-(pentan-3-yloxy)-5-((4-((4-sulfobenzyl)oxy)benzyl)amino)cyclohex-1-ene-1-carboxylic acid]
IC50 [1]: 1640 ± 120 nM
melting point: 244.5 to 248.7 °C (dec.)

CCC(CC)O[C@@H]1C=C(C(=O)O)C[C@H](NCc2ccc(OCc3ccc(B(O)O)cc3)cc2)[C@H]1NC(C)=O [Compound 3c, (3R,4R,5S)-4-acetamido-5-((4-((4-boronobenzyl)oxy)benzyl)amino)-3-(pentan-3-yloxy)cyclohex-1-ene-1-carboxylic acid]
IC50 [1]: 45 ± 6.7 nM
EC50 ([3]; Influenza A virus, H5N1, CEF): 3200 ± 440 nM
EC50 ([4]; Influenza A virus, H5N8, CEF): 2510 ± 230 nM
EC50 ([5]; Influenza A virus, MDCK): 20 ± 10 nM
EC50 ([6]; Influenza A virus, H3N2, MDCK): 3080 ± 590 nM
melting point: 168.3 to 172.1 °C (dec.)
CC50 [7]: 289000 ± 15800 nM
CC50 [8]: > 250000 nM

CCC(CC)O[C@@H]1C=C(C(=O)O)C[C@H](NCc2ccc(OCc3ccccc3C(=O)O)cc2)[C@H]1NC(C)=O [Compound 4c, 2-((4-((((1S,5R,6R)-6-acetamido-3-carboxy-5-(pentan-3-yloxy)cyclohex-3-en-1-yl)amino)methyl)phenoxy)methyl)benzoic acid]
IC50 [1]: 15000 ± 880 nM
melting point: 177.1 to 178.9 °C

CCC(CC)O[C@@H]1C=C(C(=O)O)C[C@H](NCc2ccc(OCc3cccc([N+](=O)[O-])c3)cc2)[C@H]1NC(C)=O [Compound 12c, (3R,4R,5S)-4-acetamido-5-((4-((3-nitrobenzyl)oxy)benzyl)amino)-3-(pentan-3-yloxy)cyclohex-1-ene-1-carboxylic acid]
IC50 [1]: 170 ± 6.8 nM

CCC(CC)O[C@@H]1C=C(C(=O)O)C[C@H](NCc2ccc(OCc3ccc(C(=O)O)c(OC)c3)cc2)[C@H]1NC(C)=O [Compound 10c, 4-((4-((((1S,5R,6R)-6-acetamido-3-carboxy-5-(pentan-3-yloxy)cyclohex-3-en-1-yl)amino)methyl)phenoxy)methyl)-2-methoxybenzoic acid]
IC50 [1]: 3590 ± 25 nM
melting point: 190.5 to 195.1 °C (dec.)

CCC(CC)O[C@@H]1C=C(C(=O)O)C[C@H](NCc2ccc(OCc3ccccc3[N+](=O)[O-])cc2)[C@H]1NC(C)=O [Compound 11c, (3R,4R,5S)-4-acetamido-5-((4-((2-nitrobenzyl)oxy)benzyl)amino)-3-(pentan-3-yloxy)cyclohex-1-ene-1-carboxylic acid]
IC50 [1]: 1160 ± 110 nM
melting point: 150.8 to 152.7 °C

CC(=O)N[C@H]1[C@H]([C@H](O)[C@H](O)CO)OC(C(=O)O)=C[C@@H]1N=C(N)N [Zanamivir (ZAN), zanamivir, reference compound]
EC50 ([6]; Influenza A virus, H3N2, MDCK): 270 ± 30 nM
CC50 [8]: > 250000 nM

CCC(CC)OC1C=C(C(=O)O)CC(NCc2ccc(Sc3cccs3)cc2)C1NC(C)=O (stereo not drawn) [JMC21g]
IC50 [2]: 3.83 nM

CCC(CC)O[C@@H]1C=C(C(=O)O)C[C@H](NCc2ccc(OCc3ccc(C(=O)O)cc3Cl)cc2)[C@H]1NC(C)=O [Compound 8c, 4-((4-((((1S,5R,6R)-6-acetamido-3-carboxy-5-(pentan-3-yloxy)cyclohex-3-en-1-yl)amino)methyl)phenoxy)methyl)-3-chlorobenzoic acid]
IC50 [1]: 250 ± 31 nM
melting point: 189.3 to 192.1 °C (dec.)
